Assay results as given in patent EP4737457A1, “POLYSUBSTITUTED MACROCYCLIC COMPOUND, AND PREPARATION METHOD THEREFOR AND USE THEREOF” (Shenzhen Salubris Pharmaceuticals Co., Ltd., priority 2023, dated 2025).

Key:
Human Trypsin = biological target: T1, Human Trypsin (Homo sapiens, UniProt P07477); experiment: Inhibition of Trypsin by absorbance method (S-2222 substrate, 405 nm); assay type: biochemical; conditions: Inhibitory Effect of Compounds on Trypsin; 37 °C for 30 minutes
T1 construct: purchased Sigma T6424
Method: • Enzyme: Human Trypsin (Sigma, Cat. No. T6424) • Substrate: S-2222™ (CHROMOGENIX, Cat. No. 82031639) • Buffer: 0.1 M sodium phosphate; 0.2 M NaCl and 0.5% PEG 8000, pH 7.4
Test compounds dissolved in 100% DMSO at 10 mM were diluted with 100% DMSO to concentrations of 10000 µM, 3333 µM, 1111 µM, 370.4 µM, 123.5 µM, 41.2 µM, 13.7 µM, and 4.6 µM. Then, 29.4 µL of Trypsin enzyme solution (0.8 nM) was added to each well of a 384-well plate, with 29.4 µL of buffer added to blank wells instead. Then, 0.6 µL of compound at different concentrations was added; DMSO was used instead for blank and control wells. The plate was mixed using a plate shaker and incubated at 37 °C for 30 minutes.
Finally, 30 µL of substrate at a concentration of 40 µM was added to each well, and the absorbance was measured at 405 nm.
Table 5. Inhibitory Effect of Compounds on Trypsin

Human Factor XIa = Human Factor XIa (Homo sapiens, UniProt P03951); experiment: Inhibition of human coagulation Factor XIa by absorbance method (S-2366 substrate, 405 nm); assay type: biochemical; conditions: incubated at 37 °C for 20 minutes; substrate 800 µM; read-out: Recombinant Enzyme FXIa IC50
Method: • Enzyme: Human Factor XIa (ENZYME […], Cat. No. HFXIa 1111a) • Substrate: S-2366™ (CHROMOGENIX, Cat. No. 82109039) • Buffer: 145 mM NaCl, 5 mM KCl, 1 mg/mL PEG 8000, 30 mM HEPES, pH 7.4.
Test compounds dissolved in 100% DMSO at 10 mM were diluted with 100% DMSO to concentrations of 1000 µM, 200 µM, 40 µM, 8 µM, 1.6 µM, 0.32 µM, 0.064 µM, 0.0128 µM, 0.00256 µM, and […]. Then 98 µL of FXIa enzyme solution (77.7 ng/mL) was added to each well of a 96-well plate, with 98 µL of buffer added to blank wells instead. Then, 2 µL of compound at different concentrations was added; DMSO was used instead for blank and control wells. The plate was mixed using a plate shaker and incubated at 37 °C for 20 minutes.
Finally, 100 µL of substrate (800 µM) was added to each well, and the absorbance was measured at 405 nm.
Curve fitting was performed using GraphPad Prism software to calculate the IC50 values.

Pooled human plasma = experiment: In vitro anticoagulant effect in human plasma (aPTT, EC1.5x); assay type: biochemical; conditions: 37 °C for 10 minutes
Method: aPTT (Lot 220106600), Calcium Chloride (Lot 210305600), Needle Rinse Solution (Lot 211101300): produced by Shenzhen Mindray Bio-Medical Electronics Co., Ltd. Pooled human plasma: collected from healthy individuals using disposable venous blood collection tubes (Liuyang Sanli Medical Technology Development Co., Ltd., Lot 211108, sodium citrate 9:1). Blood was collected, centrifuged at room temperature at 3000 rpm for 10 minutes, and the supernatant was collected and stored for use (Lot 20220606).
Test compounds dissolved in 100% DMSO at 10 mM were diluted with 100% DMSO to concentrations of 0.29 µM, 0.59 µM, 1.17 µM, 2.34 µM, 4.69 µM, 9.38 µM, 18.75 µM, and 37.50 µM. Then 99 µL of pooled human plasma was added to each 1.5 mL centrifuge tube, followed by the addition of 1 µL of compound at different concentrations; 1 µL of DMSO was added to the blank control. The tubes were mixed by repeated manual inversion, centrifuged briefly using a mini centrifuge to collect the samples, and then incubated in a thermostatic water bath at 37 °C for 10 minutes with mixing. The aPTT was measured using a fully automated coagulation analyzer according to the preset program.
Curve fitting was performed using GraphPad Prism software to calculate EC1.5x.

α-Chymotrypsin = biological target: T2, α-Chymotrypsin (Homo sapiens, UniProt P17538); experiment: Inhibition of Chymotrypsin by absorbance method (S-2586 substrate, 405 nm); assay type: biochemical; conditions: Inhibitory Effect of Compounds on Chymotrypsin; 37 °C for 30 minutes
T2 construct: α-Chymotrypsin (Sigma, Cat. No. C8946); purchased Sigma C8946
Method: • Enzyme: α-Chymotrypsin (Sigma, Cat. No. C8946) • Substrate: S-2586™ (Boatman Biotech, Cat. No. B2586) • Buffer: 0.05 M HEPES; 0.145 M NaCl; 5 mM KCl and 0.1% PEG 8000, pH 7.4
Test compounds dissolved in 100% DMSO at 10 mM were diluted with 100% DMSO to concentrations of 100 µM, 33.33 µM, 11.11 µM, 3.704 µM, 1.235 µM, 0.412 µM, 0.137 µM, and 0.046 µM. Then 29.4 µL of Chymotrypsin enzyme solution (20 nM) was added to each well of a 384-well plate, with 29.4 µL of buffer added to blank wells instead. Then, 0.6 µL of compound at different concentrations was added; DMSO was used instead for blank and control wells. The plate was mixed using a plate shaker and incubated at 37 °C for 30 minutes.
Finally, 30 µL of substrate at a concentration of 200 µM was added to each well, and the absorbance was measured at 405 nm.
Table 4. Inhibitory Effect of Compounds on Chymotrypsin

[1] = Pharmacokinetic experiment in rats (iv and PO); conditions: male, Sprague-Dawley (SD), rat, plasma, 5 mg/kg
From the text: (§1) Polyethylene glycol 400 (PEG-400, Lot GORKREUT, Shaen Chemical Technology (Shanghai) Co., Ltd.), DMSO (Lot 20200319, Guangdong Guanghua Sci-Tech Co., Ltd.), normal saline (Lot C20052604, Jiangxi Kelun Pharmaceutical Co., Ltd.). LC-MS instrument (Thermo Fisher Ultimate 3000 UPLC, TSQ QUANTUM ULTRA triple quadrupole mass spectrometer, AB SCIEX 5500 QTARP).
(§2) SD rats: Male, 180-250 g, purchased from Guangdong Vital River Laboratory Animal Technology Co., Ltd.
(§3) The test compound powder was accurately weighed, completely dissolved in DMSO, then PEG-400 was added. The mixture was vortexed and sonicated to mix, followed by the addition of normal saline. The mixture was vortexed and sonicated again to achieve a final concentration of 0.5 mg/mL (DMSO:PEG-400:NS = 5:60:35, V/V/V). The dosing volume was 10 mL/kg for oral gavage and 0.5 mL/kg for intravenous administration.
(§4) After intravenous or oral administration to rats, 200 µL of venous blood was collected at 5 min (not collected for oral group), 15 min, 30 min, 1 h, 2 h, 5 h, 7 h, and 24 h into heparinized EP tubes. The blood was centrifuged at 12,000 rpm for 2 minutes, and the plasma was collected and stored at -80 °C until analysis.
(§5) A precise amount of the test compound was weighed and dissolved in DMSO to 1 mg/mL as a stock solution. An appropriate volume of the compound stock solution was accurately pipetted and diluted with acetonitrile to prepare standard series solutions. 20 µL of each standard series solution was accurately pipetted and added to 180 µL of blank plasma, vortexed to mix, to prepare plasma samples equivalent to plasma concentrations of 1 ng/mL, 3 ng/mL, 10 ng/mL, 30 ng/mL, 100 ng/mL, 300 ng/mL, 1000 ng/mL, 3000 ng/mL, and 5000 ng/mL. Each concentration was analyzed in duplicate to establish the standard curve. 20 µL of plasma sample was taken, and 200 µL of an internal standard (propranolol, 5 ng/mL) in acetonitrile solution was added. The mixture was vortexed and centrifuged at 4000 rpm for 5 minutes. The supernatant was taken for LC-MS analysis. The LC-MS detection conditions were as follows: Chromatographic Column: Waters ACQUITY™ PREMIER HSS T3, 50*2.1 mm, 1.8 µm.
(§6) Mobile phase A: water (0.1% formic acid), mobile phase B: acetonitrile, flow rate: 0.5 mL/min, gradient elution: see Table 2 below.
(§7) After determining the plasma drug concentration by LC-MS, the pharmacokinetic parameters following administration to rats were calculated using the non-compartmental model in WinNonlin 6.1 software.

Human FIIa = biological target: T3, Human FIIa (Homo sapiens, UniProt P00734); experiment: Inhibition of coagulation factor FIIa by absorbance method (S-2366 substrate, 405 nm); assay type: biochemical; conditions: Inhibitory Effect of Compounds on Coagulation Factor FIIa; 37 °C for 30 minutes
T3 construct: Human FIIa (Enzyme Research Laboratories, Cat. No. HT 1002a); purchased Enzyme Research Laboratories HT 1002a
Method: Then 29.4 μL of FIIa enzyme solution (4 nM) was added to each well of a 384-well plate, with 29.4 μL of buffer added to blank wells instead. Then, 0.6 μL of compound at different concentrations was added; DMSO was used instead for blank and control wells. The plate was mixed using a plate shaker and incubated at 37 °C for 30 minutes. […] Table 6. Inhibitory Effect of Compounds on Coagulation Factor FIIa

in vivo = conditions: male, Sprague-Dawley (SD), rat
From the text: as §1, §2, §3, §4, §5, §6, §7

Human Factor XIa, sequence (P03951 388-625 limits assumed): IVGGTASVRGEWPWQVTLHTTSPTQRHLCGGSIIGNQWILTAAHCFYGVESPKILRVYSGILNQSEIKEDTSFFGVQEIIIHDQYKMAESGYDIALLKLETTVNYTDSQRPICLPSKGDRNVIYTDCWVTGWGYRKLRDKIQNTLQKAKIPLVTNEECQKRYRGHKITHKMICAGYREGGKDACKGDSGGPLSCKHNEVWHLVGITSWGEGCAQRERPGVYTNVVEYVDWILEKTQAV
Human Factor XIa, sequence (P03951 19-387 partner limits assumed): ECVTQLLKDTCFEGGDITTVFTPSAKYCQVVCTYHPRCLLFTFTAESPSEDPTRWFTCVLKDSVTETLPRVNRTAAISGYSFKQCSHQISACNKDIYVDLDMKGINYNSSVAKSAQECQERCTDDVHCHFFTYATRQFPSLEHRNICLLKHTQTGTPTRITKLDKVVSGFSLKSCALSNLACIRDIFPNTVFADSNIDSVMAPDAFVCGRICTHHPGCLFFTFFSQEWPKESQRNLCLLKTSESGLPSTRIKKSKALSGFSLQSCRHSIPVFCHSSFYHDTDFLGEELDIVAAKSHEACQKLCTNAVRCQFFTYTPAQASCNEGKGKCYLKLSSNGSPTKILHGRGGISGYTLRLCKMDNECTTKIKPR
T2 sequence (P17538 34-164 limits assumed, other chains not shown): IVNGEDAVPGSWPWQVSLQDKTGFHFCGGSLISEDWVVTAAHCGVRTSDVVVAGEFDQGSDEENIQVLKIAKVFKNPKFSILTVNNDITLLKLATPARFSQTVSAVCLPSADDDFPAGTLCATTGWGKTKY
T2 sequence (P17538 167-263 limits assumed, other chains not shown): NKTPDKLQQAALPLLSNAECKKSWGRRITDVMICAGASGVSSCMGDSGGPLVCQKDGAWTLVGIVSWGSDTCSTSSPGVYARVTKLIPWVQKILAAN

Row | IC50 (Human Trypsin) [nM] | IC50 (Human Factor XIa) [nM] | IC50 (α-Chymotrypsin) [nM] | bioavailability [1] [%] | IC50 (Human FIIa) [nM] | Structure (SMILES) | Human Plasma APTT 1.5x (Pooled human plasma) [µM] | bioavailability (in vivo) [%]
1 | 322 | 0.36 | 390 | 59.6 | 6920 | [2H]C([2H])([2H])n1ncc2c1-c1cc(cc(F)c1F)[C@@H](n1cnc(-c3cc(Cl)ccc3-n3cc(Cl)nn3)cc1=O)CCC[C@@H](C)C(=O)N2 [Compound 17, (3S,7R)-3-(4-(5-chloro-2-(4-chloro-1H-1,2,3-triazol-1-yl)phenyl)-6-oxopyrimidin-1(6H)-yl)-2^5,2^6-difluoro-7-methyl-1^1-(methyl-d3)-1^1H-9-aza-1(5,4)-pyrazola-2(1,3)-benzenacyclononaphan-8-one] | 0.04 | –
2 | 219 | 0.4 | 164 | 44.5 | 9210 | [2H]C([2H])([2H])n1ncc2c1-c1cc(cc(F)c1F)[C@@H](n1cnc(-c3c(-n4cc(C(F)(F)F)nn4)ccc(Cl)c3F)cc1=O)CCC[C@@H](C)C(=O)N2 [Compound 16, (3S,7R)-3-(4-(3-chloro-2-fluoro-6-(4-(trifluoromethyl)-1H-1,2,3-triazol-1-yl)phenyl)-6-oxopyrimidin-1(6H)-yl)-2^52^6-difluoro-7-methyl-1^1-(methyl-d3)-1^1H-9-aza-1(5,4)-pyrazola-2(1,3)-benzenacyclononaphan-8-one] | 0.31 | –
3 | 355 | 0.62 | 173 | 19 | – | [2H]C([2H])([2H])n1ncc2c1-c1cc(F)c(F)c(c1)[C@@H](n1cnc(-c3c(-n4cc(C(F)(F)F)nn4)ccc(Cl)c3F)cc1=O)CCC[C@@H](C)C(=O)N2 [Compound 4, (3S,7R)-3-(4-(3-chloro-2-fluoro-6-(4-(trifluoromethyl)-1H-1,2,3-triazol-1-yl)phenyl)-6-oxopyrimidin-1(6H)-yl)-2^4,2^5-difluoro-7-methyl-1^1-(methyl-d3)-1^1H-9-aza-1(5 ,4)-pyrazola-2(1,3)-benzenacyclononaphan-8-one] | 0.20 | –
4 | 83.1 | – | 79.2 | – | 3140 | [2H]C([2H])([2H])n1ncc2c1-c1cccc(c1)[C@@H](n1cnc(-c3cc(Cl)ccc3-n3cc(Cl)nn3)cc1=O)CCC[C@@H](C)C(=O)N2 [Comparative compound 2, reference compound] | – | –
5 | 110 | – | 103 | – | 2150 | [2H]C([2H])([2H])n1ncc2c1-c1cc(F)cc(c1)[C@@H](n1cnc(-c3cc(Cl)ccc3-n3cc(Cl)nn3)cc1=O)CCC[C@@H](C)C(=O)N2 [Comparative compound 3, reference compound] | – | –
6 | 627 | – | 223 | 21.9 | 11100 | [2H]C([2H])([2H])n1ncc2c1-c1cc(cc(F)c1F)[C@@H](n1cnc(-c3cc(Cl)ccc3-n3cc(C(F)(F)F)nn3)cc1=O)CCC[C@@H](C)C(=O)N2 [Compound 18, (3S,7R)-3-(4-(5-chloro-2-(4-(trifluoromethyl)-1H-1,2,3-triazol-1-yl)phenyl) -6-oxopyrimidin-1(6H)-yl)-2^5,2^6-difluoro-7-methyl-1^1-(methyl-d3)-1^1H-9-aza-1(5,4)-pyrazola-2(1,3)-benzenacyclononaphan-8-one] | – | –
7 | 225 | 0.24 | 411 | – | 5630 | [2H]C([2H])([2H])n1ncc2c1-c1cc(F)c(F)c(c1)[C@@H](n1cnc(-c3cc(Cl)ccc3-n3cc(Cl)nn3)cc1=O)CCC[C@@H](C)C(=O)N2 [Compound 1, (3S,7R)-3-(4-(5-chloro-2-(4-chloro-1H-1,2,3-triazol-1-yl)phenyl)-6-oxopyrimidin-1(6H)-yl)-2^4,2^5-difluoro-7-methyl-1^1-(methyl-d3)-1^1H-9-aza-1(5,4)-pyrazola-2(1,3)-benzenacyclononaphan-8-one] | – | –

Row | Structure (SMILES) | IC50 (Human Trypsin) [nM] | IC50 (Human Factor XIa) [nM] | IC50 (α-Chymotrypsin) [nM] | bioavailability [1] [%] | IC50 (Human FIIa) [nM] | Human Plasma APTT 1.5x (Pooled human plasma) [µM] | bioavailability (in vivo) [%]
8 | C[C@@H]1CCC[C@H](n2cnc(-c3cc(Cl)ccc3-n3cc(C(F)(F)F)nn3)cc2=O)c2cc(cc(F)c2F)-c2c(cnn2C(F)F)NC1=O [Compound 12, (3R,7R)-3-(4-(5-chloro-2-(4-(trifluoromethyl)-1H-1,2,3-triazol-1-yl)phenyl) -6-oxopyrimidin-1(6H)-yl)-24,2^5-difluoro-7-methyl-1^1-difluoromethyl-1^1H-9-aza-1(5,4)-pyr azola-2(1,3)-benzenacyclononaphan-8-one] | – | 0.31 | – | – | – | 0.28 | 29.4
